{
  "source": "patent US4915931A",
  "about": "“Tc-99m mononuclide complex compound” (Nihon Medi-Physics Co., Ltd., priority 1988, dated 1990)",
  "key": {"[1]": {"format": "in vivo", "conditions": "mouse", "experimental": "The ^99m Tc-PETS solution as obtained in Example 1 was injected into mice through the tail vein in an amount of 0.1 ml/animal. The mice were sacrificed at pre-determined times after the injection. The radioactivities and weights of various organs and blood taken from the sacrificed mice were measured, and the remaining percentages per gram of each organ were determined. The results are shown in Table 1 wherein the relative ratio of each organ to blood was also shown therein."}, "[2]": {"conditions": "7 minutes from the administration"}},
  "note": "Read-outs that look alike come from different tables or passages of the source.",
  "data": [
    {"substance": "Tc-99m-labeled pentane-2,4-dione-bis(N-methylthiosemicarbazone) complex compound [^99m Tc-PETS]", "values": [
      {"measurement": "octanol/buffer distribution ratio", "setting": "n-octanol / 0.06 M phosphate buffer, pH 7.0, 37° C., 15 min", "value": 191.3},
      {"measurement": "lipophilic property compared with ^99m Tc-KTS", "setting": "octanol/buffer, pH 7", "value": "much higher than that of ^99m Tc-KTS"},
      {"measurement": "distribution ratio brain/blood", "setting": "[1]; [2]", "value": "1.67 ratio (unitless)"},
      {"measurement": "distribution ratio heart/blood", "setting": "[1]; [2]", "value": "2.16 ratio (unitless)"},
      {"measurement": "distribution ratio pancreas/blood", "setting": "[1]; [2]", "value": "2.66 ratio (unitless)"},
      {"measurement": "distribution to brain, heart and pancreas after administration", "setting": "[1]; i.v. tail vein", "value": "rapidly distributed to brain, heart and pancreas"},
      {"measurement": "Body distribution, Blood", "setting": "[1]; i.v. tail vein, 0.5 min", "value": 4.31, "unit": "%/g organ"},
      {"measurement": "Body distribution, Brain", "setting": "[1]; i.v. tail vein, 0.5 min", "value": 4.68, "unit": "%/g organ"},
      {"measurement": "Body distribution, Heart", "setting": "[1]; i.v. tail vein, 0.5 min", "value": 15.60, "unit": "%/g organ"},
      {"measurement": "Body distribution, Intestine", "setting": "[1]; i.v. tail vein, 0.5 min", "value": 2.60, "unit": "%/g organ"},
      {"measurement": "Body distribution, Kidney", "setting": "[1]; i.v. tail vein, 0.5 min", "value": 15.30, "unit": "%/g organ"},
      {"measurement": "Body distribution, Liver", "setting": "[1]; i.v. tail vein, 0.5 min", "value": 4.83, "unit": "%/g organ"},
      {"measurement": "Body distribution, Lung", "setting": "[1]; i.v. tail vein, 0.5 min", "value": 11.80, "unit": "%/g organ"},
      {"measurement": "Body distribution, Pancreas", "setting": "[1]; i.v. tail vein, 0.5 min", "value": 7.11, "unit": "%/g organ"},
      {"measurement": "Body distribution, Spleen", "setting": "[1]; i.v. tail vein, 0.5 min", "value": 2.20, "unit": "%/g organ"},
      {"measurement": "Body distribution, Stomach", "setting": "[1]; i.v. tail vein, 0.5 min", "value": 1.95, "unit": "%/g organ"},
      {"measurement": "Brain/blood ratio", "setting": "[1]; i.v. tail vein, 0.5 min", "value": 1.09},
      {"measurement": "Pancreas/blood ratio", "setting": "[1]; i.v. tail vein, 0.5 min", "value": 1.60},
      {"measurement": "heart/blood ratio", "setting": "[1]; i.v. tail vein, 0.5 min", "value": 3.52},
      {"measurement": "Body distribution, Blood", "setting": "[1]; i.v. tail vein, 2 min", "value": 3.21, "unit": "%/g organ"},
      {"measurement": "Body distribution, Brain", "setting": "[1]; i.v. tail vein, 2 min", "value": 4.16, "unit": "%/g organ"},
      {"measurement": "Body distribution, Heart", "setting": "[1]; i.v. tail vein, 2 min", "value": 6.31, "unit": "%/g organ"},
      {"measurement": "Body distribution, Intestine", "setting": "[1]; i.v. tail vein, 2 min", "value": 3.17, "unit": "%/g organ"},
      {"measurement": "Body distribution, Kidney", "setting": "[1]; i.v. tail vein, 2 min", "value": 10.90, "unit": "%/g organ"},
      {"measurement": "Body distribution, Liver", "setting": "[1]; i.v. tail vein, 2 min", "value": 11.70, "unit": "%/g organ"},
      {"measurement": "Body distribution, Lung", "setting": "[1]; i.v. tail vein, 2 min", "value": 8.18, "unit": "%/g organ"},
      {"measurement": "Body distribution, Pancreas", "setting": "[1]; i.v. tail vein, 2 min", "value": 7.32, "unit": "%/g organ"},
      {"measurement": "Body distribution, Spleen", "setting": "[1]; i.v. tail vein, 2 min", "value": 3.24, "unit": "%/g organ"},
      {"measurement": "Body distribution, Stomach", "setting": "[1]; i.v. tail vein, 2 min", "value": 2.66, "unit": "%/g organ"},
      {"measurement": "Brain/blood ratio", "setting": "[1]; i.v. tail vein, 2 min", "value": 1.30},
      {"measurement": "Pancreas/blood ratio", "setting": "[1]; i.v. tail vein, 2 min", "value": 2.29},
      {"measurement": "heart/blood ratio", "setting": "[1]; i.v. tail vein, 2 min", "value": 2.17},
      {"measurement": "Body distribution, Blood", "setting": "[1]; i.v. tail vein, 5 min", "value": 2.34, "unit": "%/g organ"},
      {"measurement": "Body distribution, Brain", "setting": "[1]; i.v. tail vein, 5 min", "value": 2.93, "unit": "%/g organ"},
      {"measurement": "Body distribution, Heart", "setting": "[1]; i.v. tail vein, 5 min", "value": 4.08, "unit": "%/g organ"},
      {"measurement": "Body distribution, Intestine", "setting": "[1]; i.v. tail vein, 5 min", "value": 3.65, "unit": "%/g organ"},
      {"measurement": "Body distribution, Kidney", "setting": "[1]; i.v. tail vein, 5 min", "value": 6.20, "unit": "%/g organ"},
      {"measurement": "Body distribution, Liver", "setting": "[1]; i.v. tail vein, 5 min", "value": 20.10, "unit": "%/g organ"},
      {"measurement": "Body distribution, Lung", "setting": "[1]; i.v. tail vein, 5 min", "value": 3.95, "unit": "%/g organ"},
      {"measurement": "Body distribution, Pancreas", "setting": "[1]; i.v. tail vein, 5 min", "value": 4.30, "unit": "%/g organ"},
      {"measurement": "Body distribution, Spleen", "setting": "[1]; i.v. tail vein, 5 min", "value": 3.72, "unit": "%/g organ"},
      {"measurement": "Body distribution, Stomach", "setting": "[1]; i.v. tail vein, 5 min", "value": 1.97, "unit": "%/g organ"},
      {"measurement": "Brain/blood ratio", "setting": "[1]; i.v. tail vein, 5 min", "value": 1.37},
      {"measurement": "Pancreas/blood ratio", "setting": "[1]; i.v. tail vein, 5 min", "value": 1.86},
      {"measurement": "heart/blood ratio", "setting": "[1]; i.v. tail vein, 5 min", "value": 1.88},
      {"measurement": "Body distribution, Blood", "setting": "[1]; i.v. tail vein, 7 min", "value": 1.21, "unit": "%/g organ"},
      {"measurement": "Body distribution, Brain", "setting": "[1]; i.v. tail vein, 7 min", "value": 1.85, "unit": "%/g organ"},
      {"measurement": "Body distribution, Heart", "setting": "[1]; i.v. tail vein, 7 min", "value": 2.41, "unit": "%/g organ"},
      {"measurement": "Body distribution, Intestine", "setting": "[1]; i.v. tail vein, 7 min", "value": 2.96, "unit": "%/g organ"},
      {"measurement": "Body distribution, Kidney", "setting": "[1]; i.v. tail vein, 7 min", "value": 5.03, "unit": "%/g organ"},
      {"measurement": "Body distribution, Liver", "setting": "[1]; i.v. tail vein, 7 min", "value": 19.10, "unit": "%/g organ"},
      {"measurement": "Body distribution, Lung", "setting": "[1]; i.v. tail vein, 7 min", "value": 2.87, "unit": "%/g organ"},
      {"measurement": "Body distribution, Pancreas", "setting": "[1]; i.v. tail vein, 7 min", "value": 3.18, "unit": "%/g organ"},
      {"measurement": "Body distribution, Spleen", "setting": "[1]; i.v. tail vein, 7 min", "value": 3.06, "unit": "%/g organ"},
      {"measurement": "Body distribution, Stomach", "setting": "[1]; i.v. tail vein, 7 min", "value": 1.63, "unit": "%/g organ"},
      {"measurement": "Brain/blood ratio", "setting": "[1]; i.v. tail vein, 7 min", "value": 1.67},
      {"measurement": "Pancreas/blood ratio", "setting": "[1]; i.v. tail vein, 7 min", "value": 2.66},
      {"measurement": "heart/blood ratio", "setting": "[1]; i.v. tail vein, 7 min", "value": 2.16},
      {"measurement": "Body distribution, Blood", "setting": "[1]; i.v. tail vein, 15 min", "value": 1.46, "unit": "%/g organ"},
      {"measurement": "Body distribution, Brain", "setting": "[1]; i.v. tail vein, 15 min", "value": 0.97, "unit": "%/g organ"},
      {"measurement": "Body distribution, Heart", "setting": "[1]; i.v. tail vein, 15 min", "value": 1.76, "unit": "%/g organ"},
      {"measurement": "Body distribution, Intestine", "setting": "[1]; i.v. tail vein, 15 min", "value": 4.63, "unit": "%/g organ"},
      {"measurement": "Body distribution, Kidney", "setting": "[1]; i.v. tail vein, 15 min", "value": 4.40, "unit": "%/g organ"},
      {"measurement": "Body distribution, Liver", "setting": "[1]; i.v. tail vein, 15 min", "value": 21.90, "unit": "%/g organ"},
      {"measurement": "Body distribution, Lung", "setting": "[1]; i.v. tail vein, 15 min", "value": 2.56, "unit": "%/g organ"},
      {"measurement": "Body distribution, Pancreas", "setting": "[1]; i.v. tail vein, 15 min", "value": 2.19, "unit": "%/g organ"},
      {"measurement": "Body distribution, Spleen", "setting": "[1]; i.v. tail vein, 15 min", "value": 1.98, "unit": "%/g organ"},
      {"measurement": "Body distribution, Stomach", "setting": "[1]; i.v. tail vein, 15 min", "value": 1.50, "unit": "%/g organ"},
      {"measurement": "Brain/blood ratio", "setting": "[1]; i.v. tail vein, 15 min", "value": 0.68},
      {"measurement": "Pancreas/blood ratio", "setting": "[1]; i.v. tail vein, 15 min", "value": 1.52},
      {"measurement": "heart/blood ratio", "setting": "[1]; i.v. tail vein, 15 min", "value": 1.21},
      {"measurement": "Body distribution, Blood", "setting": "[1]; i.v. tail vein, 30 min", "value": 3.27, "unit": "%/g organ"},
      {"measurement": "Body distribution, Brain", "setting": "[1]; i.v. tail vein, 30 min", "value": 0.63, "unit": "%/g organ"},
      {"measurement": "Body distribution, Heart", "setting": "[1]; i.v. tail vein, 30 min", "value": 2.01, "unit": "%/g organ"},
      {"measurement": "Body distribution, Intestine", "setting": "[1]; i.v. tail vein, 30 min", "value": 7.68, "unit": "%/g organ"},
      {"measurement": "Body distribution, Kidney", "setting": "[1]; i.v. tail vein, 30 min", "value": 5.06, "unit": "%/g organ"},
      {"measurement": "Body distribution, Liver", "setting": "[1]; i.v. tail vein, 30 min", "value": 31.70, "unit": "%/g organ"},
      {"measurement": "Body distribution, Lung", "setting": "[1]; i.v. tail vein, 30 min", "value": 3.20, "unit": "%/g organ"},
      {"measurement": "Body distribution, Pancreas", "setting": "[1]; i.v. tail vein, 30 min", "value": 2.05, "unit": "%/g organ"},
      {"measurement": "Body distribution, Spleen", "setting": "[1]; i.v. tail vein, 30 min", "value": 2.85, "unit": "%/g organ"},
      {"measurement": "Body distribution, Stomach", "setting": "[1]; i.v. tail vein, 30 min", "value": 2.31, "unit": "%/g organ"},
      {"measurement": "Brain/blood ratio", "setting": "[1]; i.v. tail vein, 30 min", "value": 0.19},
      {"measurement": "Pancreas/blood ratio", "setting": "[1]; i.v. tail vein, 30 min", "value": 0.69},
      {"measurement": "heart/blood ratio", "setting": "[1]; i.v. tail vein, 30 min", "value": 0.62}
    ]}
  ]
}
